Patent publication US20250186408A1, “TREATMENT OF PHARMACORESISTANT EPILEPSY” (Katholieke Universiteit Leuven, priority 2021, published 2025)
Read-outs that look alike come from different tables or passages of the source.

Tests used:
ADRB2 = ADRB2 (Homo sapiens, UniProt P07550); assay: cAMP ADRB2 Agonist; assay type: cell-based; conditions: for Emax: read-out: Max response
Procedure: cAMP Hunter cell lines were expanded from freezer stocks. […] For Gi agonist determination, cells were incubated with sample in the presence of EC80 forskolin to induce response. For both conditions, media was aspirated from cells and replaced with 15 μL 2:1 HBSS/10 mM HEPES:cAMP XS+ Ab reagent. […] 5 μL of 4× sample was added to cells and incubated at 37° C. or room temperature (RT) for 30 or 60 min. Final assay vehicle concentration was 1%. […] Media was aspirated from cells and replaced with 10 μL 1:1 HBSS/HEPES:cAMP XS+ Ab reagent. […] For Gi coupled GPCRs, EC80 forskolin was included. […] Compound activity was analyzed using CBIS data analysis suite (ChemInnovation, CA).

ROCK1 = molecular target: T1, ROCK1 (Homo sapiens, UniProt Q13464); assay: Binding (KINOMEscan) ROCK1 Inhibitor; conditions: for Emax: read-out: Max response; for IC50: read-out: RC50, result type IC50
T1 construct: purchased Eurofins DiscoverX Corporation 87-1003DR; host or cells: E. coli BL21-derived host (T7 phage) or HEK-293
T1 sequence (Q13464 whole entry): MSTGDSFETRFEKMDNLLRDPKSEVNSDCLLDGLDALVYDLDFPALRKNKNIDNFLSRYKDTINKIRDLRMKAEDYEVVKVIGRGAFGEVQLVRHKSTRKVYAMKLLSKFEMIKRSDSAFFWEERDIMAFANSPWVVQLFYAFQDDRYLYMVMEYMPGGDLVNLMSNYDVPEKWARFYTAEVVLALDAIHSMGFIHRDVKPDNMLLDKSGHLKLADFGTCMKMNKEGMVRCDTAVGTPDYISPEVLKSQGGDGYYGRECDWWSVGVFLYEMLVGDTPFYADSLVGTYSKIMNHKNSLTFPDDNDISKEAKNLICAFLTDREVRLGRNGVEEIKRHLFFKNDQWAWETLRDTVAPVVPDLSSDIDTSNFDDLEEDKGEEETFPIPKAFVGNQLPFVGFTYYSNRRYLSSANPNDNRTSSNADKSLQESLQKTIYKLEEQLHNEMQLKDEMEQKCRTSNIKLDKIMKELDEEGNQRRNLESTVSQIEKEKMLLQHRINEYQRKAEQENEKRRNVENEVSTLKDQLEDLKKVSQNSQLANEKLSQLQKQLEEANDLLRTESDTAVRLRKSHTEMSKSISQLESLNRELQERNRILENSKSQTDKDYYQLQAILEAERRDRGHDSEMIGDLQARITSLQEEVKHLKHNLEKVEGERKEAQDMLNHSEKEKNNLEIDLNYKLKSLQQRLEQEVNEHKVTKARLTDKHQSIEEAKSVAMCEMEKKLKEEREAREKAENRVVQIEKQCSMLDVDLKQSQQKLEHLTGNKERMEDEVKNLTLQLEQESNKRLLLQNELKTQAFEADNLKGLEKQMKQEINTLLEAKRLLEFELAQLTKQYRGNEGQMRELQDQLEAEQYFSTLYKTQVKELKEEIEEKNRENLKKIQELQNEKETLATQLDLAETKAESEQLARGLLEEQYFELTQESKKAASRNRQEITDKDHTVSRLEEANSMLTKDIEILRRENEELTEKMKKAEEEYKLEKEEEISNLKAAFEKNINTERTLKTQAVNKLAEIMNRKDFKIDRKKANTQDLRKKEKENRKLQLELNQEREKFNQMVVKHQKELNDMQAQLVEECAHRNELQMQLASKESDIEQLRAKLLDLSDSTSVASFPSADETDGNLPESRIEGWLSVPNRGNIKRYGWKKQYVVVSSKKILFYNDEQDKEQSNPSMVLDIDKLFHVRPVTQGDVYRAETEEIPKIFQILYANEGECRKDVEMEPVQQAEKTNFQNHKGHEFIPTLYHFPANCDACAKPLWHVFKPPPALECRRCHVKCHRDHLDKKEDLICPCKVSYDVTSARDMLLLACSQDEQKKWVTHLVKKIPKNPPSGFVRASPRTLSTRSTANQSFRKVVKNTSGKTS
Procedure: For most assays, kinase-tagged T7 phage strains were grown in parallel in 24-well blocks in an E. coli host derived from the BL21 strain. E. coli were grown to log-phase and infected with T7 phage from a frozen stock (multiplicity of infection=0.4) and incubated with shaking at 32° C. until lysis (90-150 min). The lysates were centrifuged (6,000×g) and filtered (0.2 μm) to remove cell debris. The remaining kinases were produced in HEK-293 cells and subsequently tagged with DNA for qPCR detection. Streptavidin-coated magnetic beads were treated with biotinylated small molecule ligands for 30 min at RT to generate affinity resins for kinase assays. The liganded beads were blocked with excess biotin and washed with blocking buffer (SeaBlock (Pierce), 1% BSA, 0.05% Tween 20, 1 mM DTT) to remove unbound ligand and to reduce non-specific phage binding. […] All reactions were performed in polypropylene 384-well plates in a final volume of 0.02 mL. […] The beads were then re-suspended in elution buffer (1×PBS, 0.05% Tween 20, 0.5 μM non-biotinylated affinity ligand) and incubated at RT with shaking for 30 min. The kinase concentration in the eluates was measured by qPCR.
The kinase concentration in the eluates was measured by qPCR. qPCR reactions were assembled by adding 2.5 μL of kinase eluate to 7.5 μL of qPCR master mix containing 0.15 μM amplicon primers and 0.15 μM amplicon probe. The qPCR protocol consisted of a 10 min hot start at 95° C., followed by 35 cycles of 95° C. for 15 sec, 60° C. for 1 min.
Binding constants (Kds) were calculated with a standard dose-response curve using the Hill equation: […]

HTR1B [1] = molecular target: T2, HTR1B (Homo sapiens, UniProt P28222); assay: cAMP HTR1B Antagonist; conditions: for Emax: read-out: Max response
T2 sequence (P28222 whole entry): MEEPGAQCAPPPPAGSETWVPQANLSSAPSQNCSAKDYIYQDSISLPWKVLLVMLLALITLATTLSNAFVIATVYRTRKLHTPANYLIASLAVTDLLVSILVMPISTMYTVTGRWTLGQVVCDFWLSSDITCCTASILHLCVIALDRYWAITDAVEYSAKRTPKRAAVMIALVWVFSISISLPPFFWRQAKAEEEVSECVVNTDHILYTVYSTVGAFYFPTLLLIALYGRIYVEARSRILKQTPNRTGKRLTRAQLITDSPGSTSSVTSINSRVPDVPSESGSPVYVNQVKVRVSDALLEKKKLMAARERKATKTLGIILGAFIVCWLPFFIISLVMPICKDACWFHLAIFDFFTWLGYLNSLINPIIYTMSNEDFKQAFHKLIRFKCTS
Procedure: (§1) In vitro pharmacological profiling of compounds was done against 78 functional assays for 47 common off-targets (30) by Eurofins DiscoverX Corporation (Fremont, CA, USA) using their SAFETYscan E/IC50 ELECT service (Cat Ref 87-1003DR, Safety47 Panel Dose Response). […] Compounds were tested in a range of 10 concentrations, following a 3-fold serial dilution, starting from 10 μM.
(§2) cAMP Hunter cell lines were expanded from freezer stocks. Prior to testing, cells were seeded in a total volume of 20 μL into white walled 384-well microplates and incubated at 37° C. cAMP modulation was determined using the DiscoverX HitHunter cAMP XS+ assay. For Gs agonist determination, cells were incubated with sample to induce response. For Gi agonist determination, cells were incubated with sample in the presence of EC80 forskolin to induce response. For both conditions, media was aspirated from cells and replaced with 15 μL 2:1 HBSS/10 mM HEPES:cAMP XS+ Ab reagent. Intermediate dilution of sample stocks was performed to generate 4× sample in assay buffer (containing 4×EC80 forskolin in the case of antagonist determination). 5 μL of 4× sample was added to cells and incubated at 37° C. or room temperature (RT) for 30 or 60 min. Final assay vehicle concentration was 1%. For antagonist determination, cells were pre-incubated with sample followed by agonist challenge at the EC80 concentration. Media was aspirated from cells and replaced with 10 μL 1:1 HBSS/HEPES:cAMP XS+ Ab reagent. 5 μL of 4× compound was added to the cells and incubated at 37° C. or RT for 30 min. 5 μL of 4×EC80 agonist was added to the cells and incubated at 37° C. or RT for 30 or 60 min. For Gi coupled GPCRs, EC80 forskolin was included. […] Microplates were read following signal generation with a PerkinElmer Envision™ instrument for chemiluminescent signal detection. Compound activity was analyzed using CBIS data analysis suite (ChemInnovation, CA).

CNR2 = CNR2 (Homo sapiens, UniProt P34972); assay: cAMP CNR2 Agonist; conditions: for Emax: read-out: Max response
CNR2, sequence (P34972 whole entry): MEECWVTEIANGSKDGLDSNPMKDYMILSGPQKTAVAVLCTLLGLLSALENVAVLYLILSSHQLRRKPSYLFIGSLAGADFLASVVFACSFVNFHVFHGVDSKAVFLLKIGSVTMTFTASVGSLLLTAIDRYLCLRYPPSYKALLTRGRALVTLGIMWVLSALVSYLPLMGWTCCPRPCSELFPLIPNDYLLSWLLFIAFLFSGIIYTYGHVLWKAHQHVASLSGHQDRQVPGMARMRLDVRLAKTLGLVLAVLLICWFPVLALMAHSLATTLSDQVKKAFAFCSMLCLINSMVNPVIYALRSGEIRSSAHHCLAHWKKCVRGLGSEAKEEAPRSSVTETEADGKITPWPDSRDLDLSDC
Procedure: (§3) In vitro pharmacological profiling of compounds was done against 78 functional assays for 47 common off-targets (30) by Eurofins DiscoverX Corporation (Fremont, CA, USA) using their SAFETYscan E/IC50 ELECT service (Cat Ref 87-1003DR, Safety47 Panel Dose Response). […] Compounds were tested in a range of 10 concentrations, following a 3-fold serial dilution, starting from 10 μM. The assays were performed utilizing the PathHunter enzyme fragment complementation (EFC) technology, FLIPR®-based cellular screening assays, and KINOMEscan kinase binding assays.
as §2

CHRM1 = molecular target: T3, CHRM1 (Homo sapiens, UniProt P11229); assay: Calcium Flux CHRM1 Agonist; conditions: for Emax: read-out: Max response
T3 sequence (P11229 1-460): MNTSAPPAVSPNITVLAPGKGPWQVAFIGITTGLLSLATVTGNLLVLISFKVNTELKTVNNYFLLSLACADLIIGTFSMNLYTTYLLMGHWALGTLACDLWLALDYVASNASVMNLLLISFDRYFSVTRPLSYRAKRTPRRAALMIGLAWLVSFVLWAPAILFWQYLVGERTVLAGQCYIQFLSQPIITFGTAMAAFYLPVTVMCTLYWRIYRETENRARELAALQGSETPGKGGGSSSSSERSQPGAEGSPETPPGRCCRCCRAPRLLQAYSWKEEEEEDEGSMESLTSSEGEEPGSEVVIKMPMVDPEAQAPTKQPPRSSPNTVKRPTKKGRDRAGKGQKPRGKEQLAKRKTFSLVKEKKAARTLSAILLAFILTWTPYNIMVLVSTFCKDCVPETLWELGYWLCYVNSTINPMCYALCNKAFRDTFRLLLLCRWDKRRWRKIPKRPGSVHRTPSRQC
Procedure: as §3
Prior to testing, cells (10,000 cells/well) were expanded from freezer stocks and seeded into a total volume of 50 μL into black walled, clear-bottom, Poly-D-lysine coated 384-well microplates and incubated at 37° C. […] Assays were performed in 1× dye loading buffer consisting of 1× Dye (DiscoverX, Calcium No Wash^PLUS kit, Catalog No. 90-0091), 1× Additive A and 2.5 mM Probenecid in HBSS/20 mM HEPES. Probenecid was prepared fresh. Prior to testing, media was aspirated from cells and replaced with 25 μL dye loading buffer. Cells were incubated for 45 min at 37° C. and then 20 min at RT. For agonist determination, 25 μL of 2× compound in HBSS/20 mM HEPES was added using a FLIPR Tetra (MDS). For antagonist determination, cells were pre-incubated with sample followed by agonist challenge at the EC80 concentration. 25 μL of 2× sample was added and cells were incubated for 30 min at RT in the dark to equilibrate plate temperature. After incubation, antagonist determination was initiated by addition of 25 μL of 1× compound with 3×EC80 agonist using FLIPR. For both agonist and antagonist formats, activity was measure on a FLIPR Tetra (MDS). Calcium mobilization was monitored for 2 min with a 5 sec baseline read.
FLIPR read—Area under the curve, was calculated for the entire 2 min read. Compound activity was analysed using CBIS data analysis suite (ChemInnovation, CA).

nAChR (a4/b2) = nAChR (a4/b2) (Homo sapiens, UniProt P17787+P43681); assay: Ion Channel nAChR (a4/b2) Opener; assay type: cell-based; conditions: for Emax: Ion Channel nAChR (a4/b2) Opener, read-out: Max response
nAChR (a4/b2), sequence (P43681 29-627 limits assumed): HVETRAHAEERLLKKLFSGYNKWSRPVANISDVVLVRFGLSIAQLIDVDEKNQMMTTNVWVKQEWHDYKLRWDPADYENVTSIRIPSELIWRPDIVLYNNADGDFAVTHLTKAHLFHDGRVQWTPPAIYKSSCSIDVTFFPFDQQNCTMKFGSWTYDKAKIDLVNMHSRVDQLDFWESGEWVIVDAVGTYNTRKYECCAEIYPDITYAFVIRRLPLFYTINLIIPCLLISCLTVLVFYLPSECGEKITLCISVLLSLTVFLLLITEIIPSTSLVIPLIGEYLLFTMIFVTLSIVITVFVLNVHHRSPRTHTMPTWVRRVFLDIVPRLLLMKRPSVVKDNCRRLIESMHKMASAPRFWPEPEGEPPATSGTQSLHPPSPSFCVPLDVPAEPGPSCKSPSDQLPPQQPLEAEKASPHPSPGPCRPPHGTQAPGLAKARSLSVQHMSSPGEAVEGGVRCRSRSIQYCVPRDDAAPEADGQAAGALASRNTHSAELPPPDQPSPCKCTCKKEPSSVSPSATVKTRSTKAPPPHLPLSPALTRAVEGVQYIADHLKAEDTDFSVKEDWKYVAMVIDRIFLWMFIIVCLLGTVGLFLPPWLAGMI
nAChR (a4/b2), sequence (P17787 26-502): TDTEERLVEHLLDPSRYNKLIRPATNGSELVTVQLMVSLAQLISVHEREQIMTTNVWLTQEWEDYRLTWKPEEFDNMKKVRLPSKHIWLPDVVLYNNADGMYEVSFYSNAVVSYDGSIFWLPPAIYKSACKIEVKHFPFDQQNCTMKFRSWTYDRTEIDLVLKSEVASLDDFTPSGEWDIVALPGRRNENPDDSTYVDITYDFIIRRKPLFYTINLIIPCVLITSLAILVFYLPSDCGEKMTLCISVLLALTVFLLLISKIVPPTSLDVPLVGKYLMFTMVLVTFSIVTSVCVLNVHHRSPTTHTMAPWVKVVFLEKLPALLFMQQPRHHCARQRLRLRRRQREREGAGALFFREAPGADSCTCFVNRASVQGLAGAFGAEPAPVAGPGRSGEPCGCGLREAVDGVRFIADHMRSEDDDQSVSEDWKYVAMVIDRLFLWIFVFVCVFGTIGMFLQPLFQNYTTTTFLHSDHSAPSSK

KvLQT1/minK = KvLQT1/minK (Homo sapiens, UniProt P51787); assay: Ion Channel KvLQT1/minK Blocker; assay type: cell-based; conditions: for Emax: read-out: Max response
GABAA = GABAA (Homo sapiens, UniProt P14867+P18507+P47870); assay: Ion Channel GABAA Blocker; assay type: cell-based; conditions: read-out: Max response
[2] = Pharmacokinetic analysis in naïve mice; conditions: single i.p. 300 mg/kg, male NMRI mice
Procedure: After the treatment period, blood samples were drawn from the tail veins, collected in Greiner MiniCollect K2EDTA tubes, and centrifuged twice for 5 min at 15,000 g to obtain plasma samples. Three volumes of acetonitrile were added to one volume of plasma to precipitate out the proteins. The samples were vortexed for 20 s and placed on ice. Immediately after, they were centrifuged at 5,000 g for 10 min and again at 10,000 g for 2 min. The resulting supernatants were transferred to Eppendorf tubes and centrifuged for 2 min at 10,000 g. Finally, the supernatants were collected for analysis by LC-MS/MS to determine the targeted compound concentration. Percentage recovery was determined as follows: known concentrations of the compound were spiked into the blank plasma and acetonitrile was added (3:1 ratio) to precipitate out the proteins. Samples were vortexed for 20 s and placed on ice. The resulting supernatants were isolated via centrifugation as described above. The targeted compounds were identified using LC-MS/MS to detect their characteristic ions. Plasma concentrations at each point were plotted as a function of time.
Brain samples were collected at the same time points as described for blood samples. Male NMRI mice were overdosed with dolethal via i.p. administration. Mice were perfused with 0.9% saline and brains were collected in Eppendorf tubes. Brains were weighed, whereafter 400 μL of acetonitrile was added to the samples. […] Homogenized samples were centrifuged at 5,000 g for 10 min and again at 10,000 g for 2 min. The resulting supernatants were transferred to Eppendorf tubes and centrifuged for 2 min at 10,000 g. Finally, the supernatants were collected for analysis by LC-MS/MS to determine the targeted compound concentration in the brain tissue.
The compound concentrations in mouse plasma and brain were determined by LC-MS/MS.

HTR1B [3] = molecular target: T2, HTR1B; assay: cAMP HTR1B Agonist; conditions: for Emax: read-out: Max response
Procedure: as §1, §2

OPRM1 = OPRM1 (Homo sapiens, UniProt P35372); assay: cAMP OPRM1 Antagonist; conditions: for Emax: OPRM1, read-out: Max response
OPRM1, sequence (P35372 whole entry): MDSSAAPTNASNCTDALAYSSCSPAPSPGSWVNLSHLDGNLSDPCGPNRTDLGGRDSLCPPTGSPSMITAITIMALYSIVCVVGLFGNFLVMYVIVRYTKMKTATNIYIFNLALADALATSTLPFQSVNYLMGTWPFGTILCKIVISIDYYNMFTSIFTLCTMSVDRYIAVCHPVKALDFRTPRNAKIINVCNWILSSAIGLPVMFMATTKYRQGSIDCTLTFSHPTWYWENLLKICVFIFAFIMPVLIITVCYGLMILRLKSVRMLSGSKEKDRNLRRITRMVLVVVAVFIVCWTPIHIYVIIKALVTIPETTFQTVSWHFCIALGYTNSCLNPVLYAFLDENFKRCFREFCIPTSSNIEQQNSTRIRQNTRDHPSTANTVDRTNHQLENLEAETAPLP
Procedure: as §3
cAMP Hunter cell lines were expanded from freezer stocks. Prior to testing, cells were seeded in a total volume of 20 μL into white walled 384-well microplates and incubated at 37° C. cAMP modulation was determined using the DiscoverX HitHunter cAMP XS+ assay. For Gs agonist determination, cells were incubated with sample to induce response. For Gi agonist determination, cells were incubated with sample in the presence of EC80 forskolin to induce response. For both conditions, media was aspirated from cells and replaced with 15 μL 2:1 HBSS/10 mM HEPES:cAMP XS+ Ab reagent. Intermediate dilution of sample stocks was performed to generate 4× sample in assay buffer (containing 4×EC80 forskolin in the case of antagonist determination). 5 μL of 4× sample was added to cells and incubated at 37° C. or room temperature (RT) for 30 or 60 min. Final assay vehicle concentration was 1%. For antagonist determination, cells were pre-incubated with sample followed by agonist challenge at the EC80 concentration. Media was aspirated from cells and replaced with 10 μL 1:1 HBSS/HEPES:cAMP XS+ Ab reagent. 5 μL of 4× compound was added to the cells and incubated at 37° C. or RT for 30 min. 5 μL of 4×EC80 agonist was added to the cells and incubated at 37° C. or RT for 30 or 60 min. For Gi coupled GPCRs, EC80 forskolin was included. […] Microplates were read following signal generation with a PerkinElmer Envision™ instrument for chemiluminescent signal detection. Compound activity was analyzed using CBIS data analysis suite (ChemInnovation, CA). For Gs agonist mode assays, percentage activity was calculated using the following equation:

ADRB2, sequence (P07550 whole entry): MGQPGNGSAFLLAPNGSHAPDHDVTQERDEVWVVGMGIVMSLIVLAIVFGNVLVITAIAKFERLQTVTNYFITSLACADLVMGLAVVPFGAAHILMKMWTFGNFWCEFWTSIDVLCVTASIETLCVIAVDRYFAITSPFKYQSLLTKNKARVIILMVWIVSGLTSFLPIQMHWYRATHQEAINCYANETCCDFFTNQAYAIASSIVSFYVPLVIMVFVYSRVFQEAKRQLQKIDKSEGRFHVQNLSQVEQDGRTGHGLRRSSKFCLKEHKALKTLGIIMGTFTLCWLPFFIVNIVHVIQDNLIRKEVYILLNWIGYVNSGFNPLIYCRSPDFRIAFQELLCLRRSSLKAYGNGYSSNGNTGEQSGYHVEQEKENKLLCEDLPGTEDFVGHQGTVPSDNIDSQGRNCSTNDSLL

| Compound | IC50 (ROCK1; Binding ROCK1 Inhibitor) [µM] | IC50 (HTR1B [1]) [µM] | Emax (HTR1B [1]) [%] | EC50 (CNR2) [µM] | Emax (CNR2) [%] | EC50 (CHRM1) [µM] | Emax (CHRM1) [%] | EC50 (nAChR (a4/b2)) [µM] | Emax (nAChR (a4/b2)) [%] | Emax (GABAA) [%] | time at which brain concentration peaked [2] [h] | time at which plasma concentration peaked [2] [h] | EC50 (HTR1B [3]) [µM] | Emax (HTR1B [3]) [%] | IC50 (OPRM1) [µM] | Emax (OPRM1) [%] | also measured |
| --- | --- | --- | --- | --- | --- | --- | --- | --- | --- | --- | --- | --- | --- | --- | --- | --- | --- |
| Clc1cccc(C#Cc2n[nH]c3ncccc23)c1 [Compound 10.1, 3-((3-chlorophenyl)ethynyl)-1H-pyrazolo[3,4-b]pyridine] | > 10 | > 10 | 0 | > 10 | 49.3 | > 10 | 1.8 | > 10 | 0 | 5.2 | 2.5 | 1 to 4 | > 10 | 9.3 | > 10 | 0 | Emax (ADRB2; cAMP ADRB2 Agonist): 0.3%; EC50 (ADRB2; cAMP ADRB2 Agonist, read-out: RC50, result type EC50): > 10 µM; Emax (ROCK1; Binding ROCK1 Inhibitor): 4.2%; Emax (KvLQT1/minK; Ion Channel KvLQT1/minK Blocker): 0%; IC50 (KvLQT1/minK; Ion Channel KvLQT1/minK Blocker, read-out: RC50, result type IC50): > 10 µM |
| CC(C)(C)c1ccc(C#CC(O)c2ccccc2)cc1 (racemic) [Compound 3.3, rac-3-(4-(tert-butyl)phenyl)-1-phenylprop-2-yn-1-ol] | > 10 | 6.4 | 66.2 | > 10 | 38.1 | > 10 | 1.8 | > 10 | 0 | 8.7 | 0.5 | 0.5 | > 10 | 5.2 | > 10 | 0.8 | EC50 (ADRB2): > 10 µM; Emax (ADRB2): 1.9%; Emax (ROCK1): 0%; IC50 (KvLQT1/minK): > 10 µM; Emax (KvLQT1/minK): 47.5% |
